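A five-concentration, 48-hour dose response in 96-well plates underlies each endpoint, interpolated linearly between surrounding concentrations. GI50 is the concentration that inhibits growth by half.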 The source made the active and inactive calls. Rule as the data show it: active = GI50 up to about 1.1 µM and inactive = higher.
Experiments:
Test in all cases: NCI anticancer screen, dose series, 48 h
[1] = system: HOP-62
[2] = system: RXF 393
[3] = system: SW-620
[4] = system: KM12
[5] = system: SR
[6] = system: HCT-116
[7] = system: A549
[8] = system: NCI-H522
[9] = system: MDA-MB-231
[10] = system: SK-MEL-2
[11] = system: SK-MEL-5
[12] = system: M14
[13] = system: UACC-257
[14] = system: SNB-19
[15] = system: OVCAR-4
[16] = system: NCI/ADR-RES
[17] = system: BT-549
[18] = system: SF-268
[19] = system: HCC 2998
[20] = system: MOLT-4

Row | SMILES | GI50 [1] | GI50 [2] | GI50 [3] | GI50 [4] | GI50 [5] | GI50 [6] | GI50 [7] | GI50 [8] | GI50 [9] | GI50 [10] | GI50 [11] | GI50 [12] | GI50 [13] | GI50 [14] | GI50 [15] | GI50 [16] | GI50 [17] | GI50 [18] | GI50 [19] | GI50 [20]
1 | COC(=O)C1=C([C@H]2COC(C)(C)O2)[C@H]2C[C@@H]1[C@@H]1OC(C)(C)O[C@@H]12 | > 100 µM (inactive) | > 100 µM (inactive) | > 100 µM (inactive) | > 100 µM (inactive) | > 100 µM (inactive) | > 100 µM (inactive) | > 100 µM (inactive) | > 100 µM (inactive) | > 100 µM (inactive) | > 100 µM (inactive) | > 100 µM (inactive) | > 100 µM (inactive) | > 100 µM (inactive) | > 100 µM (inactive) | > 100 µM (inactive) | > 100 µM (inactive) | > 100 µM (inactive) | > 100 µM (inactive) | > 100 µM (inactive) | > 100 µM (inactive)
2 | CCN(CC)CCCNc1c2cc(OC)ccc2nc2cccc([N+](=O)[O-])c12 | 0.156 µM (active) | 0.0557 µM (active) | 0.0352 µM (active) | 0.11 µM (active) | 0.00612 µM (active) | 0.0327 µM (active) | 0.065 µM (active) | 0.00658 µM (active) | 0.122 µM (active) | 0.101 µM (active) | 0.0935 µM (active) | 0.0938 µM (active) | 0.227 µM (active) | 0.286 µM (active) | 0.0261 µM (active) | 0.274 µM (active) | 0.2 µM (active) | 0.0841 µM (active) | 0.0655 µM (active) | 0.0274 µM (active)
3 | CN(C)/C=N/S(=O)(=O)c1nn2c(C=O)c(-c3ccc(Cl)cc3)nc2s1 | 13.2 µM (inactive) | 1.51 µM (inactive) | 0.444 µM (active) | 3.63 µM (inactive) | 0.767 µM (active) | 0.693 µM (active) | 8.26 µM (inactive) | 0.557 µM (active) | 2.11 µM (inactive) | 7.11 µM (inactive) | 1.58 µM (inactive) | 0.962 µM (active) | 2.7 µM (inactive) | 14.3 µM (inactive) | 1.81 µM (inactive) | 2.22 µM (inactive) | 0.713 µM (active) | 3.46 µM (inactive) | 5.25 µM (inactive) | 0.52 µM (active)
4 | Cc1nc2c(=O)[nH]c(=O)nc-2n(CCO)c1C | > 100 µM (inactive) | > 100 µM (inactive) | > 100 µM (inactive) | > 100 µM (inactive) | > 100 µM (inactive) | > 100 µM (inactive) | > 100 µM (inactive) | > 100 µM (inactive) | > 100 µM (inactive) | > 100 µM (inactive) | > 100 µM (inactive) | > 100 µM (inactive) | > 100 µM (inactive) | > 100 µM (inactive) | > 100 µM (inactive) | > 100 µM (inactive) | > 100 µM (inactive) | > 100 µM (inactive) | > 100 µM (inactive) | > 100 µM (inactive)
5 | CC/C(Cl)=N\OC(=O)Nc1ccc(F)c(Cl)c1 | 19 µM (inactive) | 12.1 µM (inactive) | 2.55 µM (inactive) | 17.2 µM (inactive) | 4.99 µM (inactive) | 14 µM (inactive) | 21.3 µM (inactive) | 1.87 µM (inactive) | 20 µM (inactive) | 17.3 µM (inactive) | 15.6 µM (inactive) | 2.38 µM (inactive) | 17.3 µM (inactive) | 14.4 µM (inactive) | 14.5 µM (inactive) | 19.5 µM (inactive) | 16.6 µM (inactive) | 15.7 µM (inactive) | 18.7 µM (inactive) | 1.48 µM (inactive)
6 | CN(C)c1cccc(-c2cc(=S)c3cc4c(cc3[nH]2)OCO4)c1 | > 27.5 µM (inactive) | 4.83 µM (inactive) | 5.15 µM (inactive) | 5.13 µM (inactive) | 4.95 µM (inactive) | 5.74 µM (inactive) | 4.85 µM (inactive) | 12.6 µM (inactive) | 31.9 µM (inactive) | 24.4 µM (inactive) | 3.4 µM (inactive) | 5.28 µM (inactive) | 9.25 µM (inactive) | 4.7 µM (inactive) | > 100 µM (inactive) | 3.94 µM (inactive) | > 100 µM (inactive) | > 61.2 µM (inactive) | 7.89 µM (inactive) | 15.8 µM (inactive)
7 | Cn1c(=O)c2c(nc3n(Cc4ccccc4)c(=O)c(NCCCBr)cn23)n(C)c1=O | 26.5 µM (inactive) | 71 µM (inactive) | > 100 µM (inactive) | > 100 µM (inactive) | 23 µM (inactive) | 54 µM (inactive) | > 100 µM (inactive) | 54.3 µM (inactive) | 64.9 µM (inactive) | > 100 µM (inactive) | > 100 µM (inactive) | > 100 µM (inactive) | > 100 µM (inactive) | 64.4 µM (inactive) | > 100 µM (inactive) | > 100 µM (inactive) | > 100 µM (inactive) | 41.2 µM (inactive) | > 100 µM (inactive) | 19.2 µM (inactive)
8 | Cc1nc2ccccc2n1CCc1nc2ccccc2s1 | > 100 µM (inactive) | 50 µM (inactive) | 68.9 µM (inactive) | 56.1 µM (inactive) | 11.6 µM (inactive) | 25.9 µM (inactive) | 23.8 µM (inactive) | 15.6 µM (inactive) | 39.6 µM (inactive) | 86.9 µM (inactive) | 2.88 µM (inactive) | 33 µM (inactive) | 9.95 µM (inactive) | > 100 µM (inactive) | 42.3 µM (inactive) | 40.6 µM (inactive) | > 100 µM (inactive) | 53.2 µM (inactive) | 38.3 µM (inactive) | 12.9 µM (inactive)
9 | CN(C)c1nc(N)nc(CCl)n1 | 17.5 µM (inactive) | 26.5 µM (inactive) | 28.3 µM (inactive) | 28.6 µM (inactive) | 24.9 µM (inactive) | 54.8 µM (inactive) | 78.9 µM (inactive) | 10.9 µM (inactive) | 27.9 µM (inactive) | > 100 µM (inactive) | 29.5 µM (inactive) | 28.1 µM (inactive) | 87.7 µM (inactive) | > 100 µM (inactive) | 19.6 µM (inactive) | 22 µM (inactive) | 40 µM (inactive) | 27.2 µM (inactive) | 45.6 µM (inactive) | 18.8 µM (inactive)
10 | CCOC(=O)C1=NN(c2ccc(C)cc2)C2(c3ccccc3)C=C(c3ccccc3)N(C)CCN12 (stereo not given) | > 100 µM (inactive) | > 100 µM (inactive) | > 100 µM (inactive) | 48.5 µM (inactive) | 35.2 µM (inactive) | > 100 µM (inactive) | > 100 µM (inactive) | > 100 µM (inactive) | > 100 µM (inactive) | > 100 µM (inactive) | > 100 µM (inactive) | > 100 µM (inactive) | 62.4 µM (inactive) | > 100 µM (inactive) | > 100 µM (inactive) | > 100 µM (inactive) | > 100 µM (inactive) | > 100 µM (inactive) | 82.4 µM (inactive) | > 100 µM (inactive)
11 | COC(=O)c1cc2c(cc1Cl)Sc1nnc(Nc3ccccc3)n1S2(=O)=O | 2.15 µM (inactive) | 2.21 µM (inactive) | 3.39 µM (inactive) | 2.71 µM (inactive) | 2.74 µM (inactive) | 3.61 µM (inactive) | 8.47 µM (inactive) | 1.68 µM (inactive) | 3.98 µM (inactive) | 2.81 µM (inactive) | 7.96 µM (inactive) | 4.41 µM (inactive) | 7.66 µM (inactive) | 2.28 µM (inactive) | 3.37 µM (inactive) | 8.47 µM (inactive) | 4.46 µM (inactive) | 2.26 µM (inactive) | 1.91 µM (inactive) | 2.47 µM (inactive)
12 | CCc1nc(N)nc(N)c1-c1ccc(Cc2ccccc2)c([N+](=O)[O-])c1 | 0.173 µM (active) | 24.5 µM (inactive) | < 0.01 µM (active) | 0.0762 µM (active) | < 0.01 µM (active) | < 0.01 µM (active) | < 0.01 µM (active) | 0.16 µM (active) | 38.3 µM (inactive) | 33.9 µM (inactive) | < 0.01 µM (active) | 0.0144 µM (active) | 23.6 µM (inactive) | 1.51 µM (inactive) | 16.6 µM (inactive) | 0.0475 µM (active) | 13 µM (inactive) | 0.0192 µM (active) | 0.151 µM (active) | < 0.0127 µM (active)
13 | Clc1ccc(CCNC2(c3cc4ccccc4s3)CCCCC2)cc1Cl | 28.2 µM (inactive) | 17.7 µM (inactive) | 34.7 µM (inactive) | 21.8 µM (inactive) | 11.9 µM (inactive) | 12.4 µM (inactive) | 47.8 µM (inactive) | 17.5 µM (inactive) | 21.1 µM (inactive) | 19 µM (inactive) | 15.6 µM (inactive) | 23.8 µM (inactive) | 19 µM (inactive) | 30.5 µM (inactive) | 33.3 µM (inactive) | 24 µM (inactive) | 28.2 µM (inactive) | 53 µM (inactive) | 7.74 µM (inactive) | 13.8 µM (inactive)
14 | COCOc1cc(OC)ccc1C/C=N/O | > 100 µM (inactive) | > 100 µM (inactive) | > 100 µM (inactive) | > 100 µM (inactive) | > 100 µM (inactive) | > 100 µM (inactive) | > 100 µM (inactive) | > 100 µM (inactive) | > 100 µM (inactive) | > 100 µM (inactive) | > 100 µM (inactive) | > 100 µM (inactive) | > 100 µM (inactive) | > 100 µM (inactive) | > 100 µM (inactive) | > 100 µM (inactive) | > 100 µM (inactive) | > 100 µM (inactive) | > 100 µM (inactive) | > 100 µM (inactive)

Reference: ChEMBL document CHEMBL1201862, “PubChem BioAssay data set” (2004)
